≈ marks a conversion by molar mass, not a printed value. Where a SMILES comes first, the peptide text is derived from it. Bridges are numbered along the chain shown (N, C = ends).
Assays:
[1] = tested on: Enterobacter cloacae; test: Bactericidal activity against Enterobacter cloacae DSM 30054 assessed as reduction in colony count and measured after 3 days by agar diffusion assay; type: functional; details: DSM 30054, 72 h, time 3 day
[2] = tested on: Pseudomonas aeruginosa; test: Bactericidal activity against Pseudomonas aeruginosa DSM 19880 assessed as reduction in colony count and measured after 3 days by agar diffusion assay; type: functional; details: DSM 19880, 72 h, time 3 day
[3] = tested on: Enterobacter cloacae; test: Antibacterial activity against Enterobacter cloacae DSM 30054 assessed as reduction in bacterial growth measured after 3 days by broth microdilution method; type: functional; details: DSM 30054, 72 h, time 3 day
[4] = tested on: Mycolicibacterium smegmatis; test: Antibacterial activity against Mycobacterium smegmatis DSM 43080 assessed as reduction in bacterial growth measured after 3 days by broth microdilution method; type: functional; details: DSM 43080, 72 h, time 3 day
[5] = Thermal stability of compound in water incubated at 95 degreeC for 4 hrs by HPLC analysis; type: physicochemical; details: buffer
[6] = Stability of the compound assessed as carboxypeptidase Y mediated compound digestion pretreated at 95 degreeC for 4 hrs followed by protease addition incubated for 4 hrs by HPLC analysis; type: ADME
[7] = tested on: Staphylococcus aureus; test: Antibacterial activity against Staphylococcus aureus DSM 20231 assessed as reduction in bacterial growth measured after 3 days by broth microdilution method; type: functional; details: DSM 20231, 72 h, time 3 day
[8] = tested on: Mycolicibacterium phlei; test: Bactericidal activity against Mycobacterium phlei DSM 43239 assessed as reduction in colony count and measured after 3 days by agar diffusion assay; type: functional; details: DSM 43239, 72 h, time 3 day
[9] = tested on: Bacillus cereus; test: Antibacterial activity against Bacillus cereus DSM 31 assessed as reduction in bacterial growth measured after 3 days by broth microdilution method; type: functional; details: DSM 31, 72 h, time 3 day
[10] = tested on: Staphylococcus aureus; test: Bactericidal activity against Staphylococcus aureus DSM 20231 assessed as reduction in colony count and measured after 3 days by agar diffusion assay; type: functional; details: DSM 20231, 72 h, time 3 day
[11] = tested on: Acinetobacter baumannii; test: Bactericidal activity against Acinetobacter baumannii […] assessed as reduction in colony count and measured after 3 days by agar diffusion assay; type: functional; details: 72 h, time 3 day
[12] = tested on: Enterococcus faecium; test: Antibacterial activity against Enterococcus faecium DSM 20477 assessed as reduction in bacterial growth measured after 3 days by broth microdilution method; type: functional; details: DSM 20477, 72 h, time 3 day
[13] = tested on: Bacillus cereus; test: Bactericidal activity against Bacillus cereus DSM 31 assessed as reduction in colony count and measured after 3 days by agar diffusion assay; type: functional; details: DSM 31, 72 h, time 3 day
[14] = Thermal stability of compound in water assessed as antibacterial activity against Mycobacterium smegmatis DSM 43080 by measuring zone of inhibition incubated up to 8 hrs at 95 degreeC by agar diffusion assay; type: physicochemical; details: buffer
[15] = tested on: Pseudomonas aeruginosa; test: Antibacterial activity against Pseudomonas aeruginosa DSM 19880 assessed as reduction in bacterial growth measured after 3 days by broth microdilution method; type: functional; details: DSM 19880, 72 h, time 3 day
[16] = tested on: Klebsiella oxytoca; test: Antibacterial activity against Klebsiella oxytoca DSM 5175 assessed as reduction in bacterial growth measured after 3 days by broth microdilution method; type: functional; details: DSM 5175, 72 h, time 3 day
[17] = Stability of the compound assessed as carboxypeptidase Y mediated compound digestion by measuring Mycobacterium smegmatis DSM 43080 zone of inhibition incubated for 4 hrs by agar diffusion assay; type: ADME
[18] = tested on: Mycolicibacterium smegmatis; test: Antimycobacterial activity against Mycobacterium smegmatis DSM 43080 assessed as reduction in bacterial growth at mid-exponential phase at 10 times of MIC and measured up to 24 hrs by time killing assay; type: functional, organism-based; details: TDE = time-dependent effect
[19] = tested on: Acinetobacter baumannii; test: Antibacterial activity against Acinetobacter baumannii […] assessed as reduction in bacterial growth measured after 3 days by broth microdilution method; type: functional; details: 72 h, time 3 day
[20] = tested on: Mycolicibacterium smegmatis; test: Antimycobacterial activity against Mycobacterium smegmatis DSM 43080 assessed as reduction in bacterial growth at late-exponential phase at 10 times of MIC measured up to 48 hrs by time killing assay; type: functional, organism-based; details: TDE = time-dependent effect
[21] = tested on: Mycolicibacterium smegmatis; test: Bactericidal activity against Mycobacterium smegmatis DSM 43080 assessed as reduction in colony count and measured after 3 days by agar diffusion assay; type: functional; details: DSM 43080, 72 h, time 3 day
[22] = tested on: Mycolicibacterium phlei; test: Antibacterial activity against Mycobacterium phlei DSM 43239 assessed as reduction in bacterial growth measured after 3 days by broth microdilution method; type: functional; details: DSM 43239, 72 h, time 3 day
[23] = tested on: Enterococcus faecium; test: Bactericidal activity against Enterococcus faecium DSM 20477 assessed as reduction in colony count and measured after 3 days by agar diffusion assay; type: functional; details: DSM 20477, 72 h, time 3 day
[24] = tested on: Klebsiella oxytoca; test: Bactericidal activity against Klebsiella oxytoca DSM 5175 assessed as reduction in colony count and measured after 3 days by agar diffusion assay; type: functional; details: DSM 5175, 72 h, time 3 day

Structure (SMILES): CC[C@H](C)[C@H](NC(=O)CNC(=O)[C@@H]1CC(=O)N[C@@H](CO)C(=O)N[C@@H](CCCCN)C(=O)N[C@@H](CCCCN)C(=O)N[C@@H](CO)C(=O)N[C@@H](CCCCN)C(=O)N2CCC[C@H]2C(=O)NCC(=O)N1)C(=O)N[C@@H](CCCNC(=N)N)C(=O)NCC(=O)N[C@@H](CCCCN)C(=O)NCC(=O)N[C@H](C(=O)N[C@@H](CCCNC(=N)N)C(=O)NCC(=O)O)C(C)C (SKKSKPGDGIRGKGVRG-OH; lactam N-8)
- MBC [1]: > 32 µg/mL
- MBC [2]: > 32 µg/mL
- MIC [3]: > 32 µg/mL
- MIC [4]: 0.125 µg/mL (≈ 0.0731 µM)
- Stability [5]: Stable
- Stability [6]: Stable
- MIC [7]: > 32 µg/mL
- MBC [8]: > 0.125 µg/mL
- MIC [9]: > 32 µg/mL
- MBC [10]: > 32 µg/mL
- MBC [11]: > 32 µg/mL
- MIC [12]: > 32 µg/mL
- MBC [13]: > 32 µg/mL
- Stability [14]: Stable
- MIC [15]: > 32 µg/mL
- MIC [16]: > 32 µg/mL
- Stability [17]: Stable
- Activity [18]: Tde
- MIC [19]: > 32 µg/mL
- Activity [20]: Tde
- MBC [21]: 0.5 µg/mL (≈ 0.293 µM)
- MIC [22]: 0.03 µg/mL (≈ 0.0176 µM)
- MBC [23]: > 32 µg/mL
- MBC [24]: > 32 µg/mL

Structure (SMILES): CO[C@H]1/C=C/O[C@@]2(C)Oc3c(C)c(O)c4c(O)c(c(/C=N/N5CCN(C)CC5)c(O)c4c3C2=O)NC(=O)/C(C)=C\C=C\[C@H](C)[C@H](O)[C@@H](C)[C@@H](O)[C@@H](C)[C@H](OC(C)=O)[C@@H]1C [RIFAMPIN]
- MBC [2]: > 32 µg/mL
- MIC [3]: 16 µg/mL (≈ 19.4 µM)
- MIC [4]: 8 µg/mL (≈ 9.72 µM)
- MIC [7]: 0.004 µg/mL (≈ 0.00486 µM)
- MBC [8]: 0.06 µg/mL (≈ 0.0729 µM)
- MIC [9]: 0.25 µg/mL (≈ 0.304 µM)
- MIC [12]: 8 µg/mL (≈ 9.72 µM)
- MIC [15]: > 32 µg/mL
- MIC [16]: 4 µg/mL (≈ 4.86 µM)
- MIC [19]: 1 µg/mL (≈ 1.22 µM)
- MBC [21]: 8 µg/mL (≈ 9.72 µM)
- MIC [22]: 0.03 µg/mL (≈ 0.0365 µM)

Structure (SMILES): NC[C@H]1O[C@H](O[C@H]2[C@H](O)[C@@H](O[C@H]3O[C@H](CO)[C@@H](O)[C@H](N)[C@H]3O)[C@H](N)C[C@@H]2N)[C@H](O)[C@@H](O)[C@@H]1O [KANAMYCIN]
- MBC [2]: > 32 µg/mL
- MIC [3]: 2 µg/mL (≈ 4.13 µM)
- MIC [4]: 0.5 µg/mL (≈ 1.03 µM)
- MIC [7]: 2 µg/mL (≈ 4.13 µM)
- MBC [8]: 1 µg/mL (≈ 2.06 µM)
- MIC [9]: 8 µg/mL (≈ 16.5 µM)
- MIC [12]: > 32 µg/mL
- MIC [15]: > 32 µg/mL
- MIC [16]: 2 µg/mL (≈ 4.13 µM)
- MIC [19]: 2 µg/mL (≈ 4.13 µM)
- MBC [21]: 0.5 µg/mL (≈ 1.03 µM)
- MIC [22]: 1 µg/mL (≈ 2.06 µM)
- MBC [23]: > 32 µg/mL

— ChEMBL document CHEMBL5120907, “Triculamin: An Unusual Lasso Peptide with Potent Antimycobacterial Activity” (J Nat Prod, 2022)
